In ChEMBL document CHEMBL1201862, “PubChem BioAssay data set” (2004):
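Method: 48-hour compound exposure of cells in 96-well plates, five concentrations, linear interpolation of endpoints. GI50 is the concentration that inhibits growth by half.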 Active and inactive are the calls of the source. Cut-off read from the data, not from the text of the source: active = GI50 up to about 1.1 µM and inactive = higher.

Tests used:
Assay in all cases: DTP human tumour cell line panel, 48 h
[1] = test system: MDA-N
[2] = test system: ACHN
[3] = test system: OVCAR-3
[4] = test system: SW-620
[5] = test system: SF-539
[6] = test system: NCI-H460
[7] = test system: MDA-MB-231
[8] = test system: SR
[9] = test system: A549
[10] = test system: M14
[11] = test system: SK-OV-3
[12] = test system: UACC-257
[13] = test system: HCT-15
[14] = test system: DU-145
[15] = test system: HOP-92
[16] = test system: A498
[17] = test system: CCRF-CEM
[18] = test system: CAKI-1
[19] = test system: PC-3
[20] = test system: HOP-62
[21] = test system: SN12C
[22] = test system: TK-10
[23] = test system: HT-29
[24] = test system: OVCAR-8
[25] = test system: MCF7
[26] = test system: Hs-578T
[27] = test system: HL-60
[28] = test system: NCI-H23
[29] = test system: IGROV-1
[30] = test system: Malme-3M
[31] = test system: SF-295
[32] = test system: UO-31
[33] = test system: SF-268
[34] = test system: HCC 2998
[35] = test system: COLO 205
[36] = test system: U-251
[37] = test system: SK-MEL-2
[38] = test system: SNB-19
[39] = test system: NCI/ADR-RES
[40] = test system: RPMI-8226
[41] = test system: NCI-H522
[42] = test system: EKVX
[43] = test system: OVCAR-5
[44] = test system: SK-MEL-28
[45] = test system: SK-MEL-5
[46] = test system: SNB-75
[47] = test system: LOX IMVI
[48] = test system: MOLT-4
[49] = test system: HCT-116
[50] = test system: KM12
[51] = test system: 786-0
[52] = test system: T47D
[53] = test system: MDA-MB-435
[54] = test system: UACC-62
[55] = test system: K562
[56] = test system: OVCAR-4
[57] = test system: RXF 393
[58] = test system: BT-549
[59] = test system: NCI-H226

COC1=CC(=O)c2c(O)c3c(c(O)c2C1=O)OC1(Oc2c(cc4cc(C)oc(=O)c4c2O)CC1O)C3O (stereo not given)
GI50 [1]: 20.8 µM (inactive)
GI50 [2]: 41.3 µM (inactive)
GI50 [3]: 67.1 µM (inactive)
GI50 [4]: 53.7 µM (inactive)
GI50 [5]: 44.5 µM (inactive)
GI50 [6]: 27.4 µM (inactive)
GI50 [7]: 24 µM (inactive)
GI50 [8]: > 100 µM (inactive)
GI50 [9]: 45.2 µM (inactive)
GI50 [10]: 42.5 µM (inactive)
GI50 [11]: 77.1 µM (inactive)
GI50 [12]: 40.6 µM (inactive)
GI50 [13]: 29 µM
GI50 [14]: 33.8 µM (inactive)
GI50 [15]: > 100 µM (inactive)
GI50 [16]: 47.9 µM (inactive)
GI50 [17]: 30.1 µM (inactive)
GI50 [18]: 21.7 µM (inactive)
GI50 [19]: 38.4 µM (inactive)
GI50 [20]: 35.2 µM (inactive)
GI50 [21]: 23.5 µM (inactive)
GI50 [22]: 50.9 µM (inactive)
GI50 [23]: 48.4 µM (inactive)
GI50 [24]: 40.4 µM (inactive)
GI50 [25]: 43.9 µM (inactive)
GI50 [26]: 91.8 µM (inactive)
GI50 [27]: 33.3 µM (inactive)
GI50 [28]: 35.6 µM (inactive)
GI50 [29]: 25.8 µM (inactive)
GI50 [30]: 2.14 µM (inactive)
GI50 [31]: 41.6 µM (inactive)
GI50 [32]: 55.7 µM (inactive)
GI50 [33]: 61 µM (inactive)
GI50 [34]: 28.9 µM (inactive)
GI50 [35]: 32.8 µM (inactive)
GI50 [36]: 39.9 µM (inactive)
GI50 [37]: 39.7 µM (inactive)
GI50 [38]: 20.9 µM (inactive)
GI50 [39]: 46.9 µM (inactive)
GI50 [40]: 29.4 µM (inactive)
GI50 [41]: 25.1 µM (inactive)
GI50 [42]: 24.9 µM (inactive)
GI50 [43]: 32.7 µM (inactive)
GI50 [44]: 46.5 µM (inactive)
GI50 [45]: 26.6 µM (inactive)
GI50 [46]: 60.4 µM (inactive)
GI50 [47]: 30.1 µM (inactive)
GI50 [48]: 23.3 µM (inactive)
GI50 [49]: 35.6 µM (inactive)
GI50 [50]: 29.9 µM (inactive)
GI50 [51]: 40 µM (inactive)
GI50 [52]: 38.1 µM (inactive)
GI50 [53]: 33.7 µM (inactive)
GI50 [54]: 32.7 µM (inactive)
GI50 [55]: 42.8 µM (inactive)
GI50 [56]: 27.8 µM (inactive)

CC1(C)CC(=O)C2=C(C1)N(c1ccccc1)C1(O)C=CC(O)=C3C(=O)c4ccccc4C(=O)C321 (stereo not given)
GI50 [2]: 21.1 µM (inactive)
GI50 [3]: 37.8 µM (inactive)
GI50 [5]: 27.4 µM (inactive)
GI50 [6]: 26.3 µM (inactive)
GI50 [7]: 34.4 µM (inactive)
GI50 [8]: 8.57 µM (inactive)
GI50 [9]: 67.5 µM (inactive)
GI50 [10]: 40.5 µM (inactive)
GI50 [11]: 88.9 µM (inactive)
GI50 [12]: 33.8 µM (inactive)
GI50 [13]: 30.8 µM
GI50 [14]: 74 µM (inactive)
GI50 [15]: 24.1 µM (inactive)
GI50 [17]: 4.06 µM (inactive)
GI50 [18]: 26.2 µM (inactive)
GI50 [19]: 26.2 µM (inactive)
GI50 [20]: 34.4 µM (inactive)
GI50 [21]: 28.7 µM (inactive)
GI50 [22]: 24.4 µM (inactive)
GI50 [23]: 21.2 µM (inactive)
GI50 [24]: 37.8 µM (inactive)
GI50 [25]: 27.7 µM (inactive)
GI50 [27]: 37.2 µM (inactive)
GI50 [28]: 24.6 µM (inactive)
GI50 [29]: 26 µM (inactive)
GI50 [30]: 26.7 µM (inactive)
GI50 [31]: 30 µM (inactive)
GI50 [57]: 19.8 µM (inactive)
GI50 [58]: 26.9 µM (inactive)
GI50 [32]: 19.1 µM (inactive)
GI50 [33]: 20.2 µM (inactive)
GI50 [34]: 30.2 µM (inactive)
GI50 [35]: 33.6 µM (inactive)
GI50 [36]: 32.9 µM (inactive)
GI50 [37]: 27 µM (inactive)
GI50 [38]: 21.7 µM (inactive)
GI50 [39]: 9.84 µM (inactive)
GI50 [40]: 22.3 µM (inactive)
GI50 [41]: 20.3 µM (inactive)
GI50 [42]: 55.6 µM (inactive)
GI50 [43]: 42.8 µM (inactive)
GI50 [44]: 17.8 µM (inactive)
GI50 [46]: 22.5 µM (inactive)
GI50 [47]: 21 µM (inactive)
GI50 [48]: 12.5 µM (inactive)
GI50 [49]: 61.4 µM (inactive)
GI50 [50]: 23 µM (inactive)
GI50 [59]: 18.7 µM (inactive)
GI50 [51]: 33.1 µM (inactive)
GI50 [52]: 45.3 µM (inactive)
GI50 [53]: 20.7 µM (inactive)
GI50 [54]: 19.2 µM (inactive)
GI50 [55]: 14 µM (inactive)
GI50 [56]: 14.7 µM (inactive)
